Data as given in ChEMBL document CHEMBL1201862, “PubChem BioAssay data set” (2004).
The source made the active and inactive calls.

Key:
Cytochrome P450 2D6 = Cytochrome P450 2D6 (Homo sapiens, UniProt P10635);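 also: CYP2D6 member of a cytochrome P450 panel assay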
[1] = HEK-293T cell viability reduction – luminescence, B-cell screen hits, cytotoxicity control for BCR NF-kB inhibitor project, dose response (AID 489021); assay type: functional, cell-based;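 also: HEK-293T cells carrying an NF-kB luciferase reporter; cells exposed to compound for about 14 hours before viability readout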
Cytochrome P450 2C19 = Cytochrome P450 2C19 (Homo sapiens, UniProt P33261); assay: Cytochrome panel assay with activity outcomes. Panel member name: p450-cyp2c19 Compounds with AC50 equal or less than 10 uM are considered active; assay type: functional
[2] = biological target: Heat shock protein HSP 90-alpha (Homo sapiens, UniProt P07900); assay type: functional, organism-based
[3] = biological target: ATP-dependent molecular chaperone HSP82 (Candida albicans (strain WO-1) (Yeast), UniProt C4YTQ8); assay: steroid-induced GRE reporter decrease in yeast – S. cerevisiae, luminescence, Hsp90 inhibitor project, dose response (AID 2400); assay type: functional, cell-based;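 also: beta-galactosidase luminescence from glucocorticoid response element reporter as proxy for Hsp90 function; inhibitor potency where signal loss means Hsp90 inhibition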
[4] = DRD fibroblast viability loss – cell-based, non-viral oncogenic, luminescence, dose response (AID 1934); assay type: functional; settings: Homo sapiens
BJ [5] = assay: BJ-TERT-LT-ST fibroblast viability loss – cell-based, RAS-independent, luminescence, dose response (AID 1935); assay type: functional; settings: Homo sapiens;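 also: BJ fibroblasts immortalized with TERT plus LT and ST oncogenes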
[6] = NIH-3T3 fibroblast cytotoxicity, dose response, cytotoxicity control, cell-based, fluorescence, Alamar Blue, secondary assay (AID 2327); assay type: functional;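 also: NIH-3T3 mouse fibroblasts cultured with fluconazole at 8 µg/mL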
[7] = biological target: T1, Serine/threonine-protein phosphatase (Candida dubliniensis (strain CD36 / CBS 7987 / NCPF 3949 / NRRLY-17841) (Yeast), UniProt B9W6M3); assay: blockers of CaCl2-induced CDRE-lacZ signaling – S. cerevisiae, luminescence, secondary, dose response (AID 2388); assay type: functional, cell-based;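 also: yeast reporter cells carrying a calcineurin-responsive lacZ construct stimulated with calcium chloride; luminescent beta-galactosidase reporter signal in whole cells rather than isolated phosphatase activity; potency for inhibition where a drop in reporter signal means calcineurin blockade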
T1 sequence (B9W6M3 whole entry): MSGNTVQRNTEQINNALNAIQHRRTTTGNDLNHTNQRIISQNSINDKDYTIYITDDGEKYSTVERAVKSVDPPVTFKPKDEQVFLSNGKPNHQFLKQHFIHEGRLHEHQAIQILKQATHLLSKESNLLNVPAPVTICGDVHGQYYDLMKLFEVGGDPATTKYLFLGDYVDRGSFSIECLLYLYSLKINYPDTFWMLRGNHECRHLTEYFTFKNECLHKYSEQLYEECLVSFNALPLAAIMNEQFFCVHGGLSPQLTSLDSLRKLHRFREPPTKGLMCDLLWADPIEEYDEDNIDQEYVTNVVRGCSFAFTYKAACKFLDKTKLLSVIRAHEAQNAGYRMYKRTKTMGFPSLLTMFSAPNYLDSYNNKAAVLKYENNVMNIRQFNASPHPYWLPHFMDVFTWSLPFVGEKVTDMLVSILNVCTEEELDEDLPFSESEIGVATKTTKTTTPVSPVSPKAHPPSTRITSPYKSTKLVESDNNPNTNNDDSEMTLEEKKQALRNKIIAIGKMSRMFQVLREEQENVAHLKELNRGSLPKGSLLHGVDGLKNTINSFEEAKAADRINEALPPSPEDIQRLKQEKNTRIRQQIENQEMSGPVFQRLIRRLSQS

BJ [8] = assay: cells; assay type: functional, cell-based; settings: Homo sapiens
[9] = fluconazole-exposed Candida albicans growth modulators – fluorescence, retest, confirmation (AID 2467); assay type: functional, cell-based
BJ [10] = assay: BJ-TERT fibroblast viability loss – cell-based, RAS-independent, luminescence, dose response (AID 1933); assay type: functional; settings: Homo sapiens
Nonstructural protein 1 = Nonstructural protein 1 (Influenza A virus, UniProt Q194T2); assay type: functional, Influenza A virus (A/California/07/2009(H1N1))
BJ [11] = assay: growth inhibition of engineered Ras-driven BJ cells – cell-based, alamar blue fluorescence, cherrypicked samples, dose response (AID 2631); assay type: functional; settings: Homo sapiens;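 also: confirmatory dose-response assay in RAS-dependent BJ fibroblasts engineered with TERT, LT and ST, with cytotoxicity read by fluorescence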
[12] = biological target: T2, Microphthalmia-associated transcription factor (Homo sapiens, UniProt O75030); assay: reducers of TRPM1 reporter luminescence, concentration series – cell-based, SK-MEL-5, cherry-picked, set 3, MITF inhibitor project, dose response (AID 493073); assay type: functional;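 also: SK-MEL-5 melanoma cells with luciferase driven by the MITF target TRPM1 promoter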
T2 sequence (O75030 whole entry): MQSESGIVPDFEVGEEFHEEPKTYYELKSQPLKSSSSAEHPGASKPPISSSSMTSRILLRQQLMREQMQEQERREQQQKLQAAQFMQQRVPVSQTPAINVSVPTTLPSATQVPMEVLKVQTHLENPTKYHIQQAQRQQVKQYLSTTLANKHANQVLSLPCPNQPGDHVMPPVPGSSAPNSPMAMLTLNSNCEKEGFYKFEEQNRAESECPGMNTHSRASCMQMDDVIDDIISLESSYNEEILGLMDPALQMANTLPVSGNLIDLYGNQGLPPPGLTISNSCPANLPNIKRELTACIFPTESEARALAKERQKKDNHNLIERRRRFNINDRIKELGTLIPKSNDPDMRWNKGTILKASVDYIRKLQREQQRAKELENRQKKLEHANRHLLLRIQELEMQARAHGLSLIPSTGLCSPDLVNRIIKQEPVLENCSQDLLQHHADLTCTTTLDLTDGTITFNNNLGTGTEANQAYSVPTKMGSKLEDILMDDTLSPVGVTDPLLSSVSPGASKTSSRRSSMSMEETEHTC

[13] = biological target: T3, Corticotropin-releasing factor receptor 2/Corticotropin-releasing factor-binding protein (Homo sapiens, UniProt P24387+Q13324); assay: activators of CRF receptor 2 with binding protein – uHTS hits, confirmation (AID 602473); assay type: functional; settings: read-out: EC50_Mean
T3 sequence (Q13324 whole entry): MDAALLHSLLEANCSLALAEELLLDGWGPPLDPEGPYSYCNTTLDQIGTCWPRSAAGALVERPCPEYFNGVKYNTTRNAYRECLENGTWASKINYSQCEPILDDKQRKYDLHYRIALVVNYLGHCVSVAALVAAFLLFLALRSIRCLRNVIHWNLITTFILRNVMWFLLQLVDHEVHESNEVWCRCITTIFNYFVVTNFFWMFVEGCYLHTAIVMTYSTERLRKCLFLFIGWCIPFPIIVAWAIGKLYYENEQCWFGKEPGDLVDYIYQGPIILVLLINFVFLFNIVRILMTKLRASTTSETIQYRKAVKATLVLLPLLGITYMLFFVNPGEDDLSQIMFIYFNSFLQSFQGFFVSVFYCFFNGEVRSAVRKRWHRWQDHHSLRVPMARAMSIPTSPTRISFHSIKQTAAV
T3 sequence (P24387 whole entry): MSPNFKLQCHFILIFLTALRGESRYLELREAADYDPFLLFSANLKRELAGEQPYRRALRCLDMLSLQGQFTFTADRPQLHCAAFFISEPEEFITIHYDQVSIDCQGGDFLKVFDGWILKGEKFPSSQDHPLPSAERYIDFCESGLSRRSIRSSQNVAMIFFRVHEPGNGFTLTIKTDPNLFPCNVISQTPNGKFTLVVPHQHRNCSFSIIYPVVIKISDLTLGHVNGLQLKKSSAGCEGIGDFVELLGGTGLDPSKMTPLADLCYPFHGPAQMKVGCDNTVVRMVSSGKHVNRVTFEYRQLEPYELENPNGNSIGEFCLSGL

CHO = CHO cell viability loss, potency – luminescence, cytotoxicity control for TLR9-MyD88 binding inhibitor project, dose response (AID 588339); assay type: functional, cell-based, hamster; settings: Cricetulus griseus;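 also: CHO cells stably coexpressing TLR9 and MyD88 fusions from primary screen; compound exposure lasted 48 hours before viability readout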
Ephrin type-A receptor 4 = Ephrin type-A receptor 4 (Mus musculus, UniProt Q03137); assay: EphA4 ligand-binding antagonists – biochemical, colorimetric, mouse EphA4, primary screen (AID 689); assay type: functional
[14] = Luminescence Cell-Based Dose Response HTS to Identify Inhibitors of 5'UTR Stem-Loop Driven Prion Protein mRNA Translation in H4 Neuroglioblastoma Cells. [Related pubchem assays: 1827 (Project Summary), 1813 (Primary HTS)]; assay type: functional
[15] = luciferase reporter signal suppression in cells – H4 neuroglioma cells, luminescence, dose response (AID 1990); assay type: functional, cell-based
[16] = alpha-synuclein stem-loop luciferase translation blockers – H4 neuroglioma cells, luminescence, confirmation (AID 1988); assay type: functional, cell-based
[17] = biological target: Luciferin 4-monooxygenase (Photinus pyralis, UniProt P08659); assay: inhibition of purified Photinus pyralis luciferase – biochemical, luminescence, dose response (AID 1891)
Cytochrome P450 1A2 = biological target: T4, Cytochrome P450 1A2 (Homo sapiens, UniProt P05177);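 also: PubChem cytochrome P450 panel assay, CYP1A2 panel member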
T4 sequence (P05177 whole entry): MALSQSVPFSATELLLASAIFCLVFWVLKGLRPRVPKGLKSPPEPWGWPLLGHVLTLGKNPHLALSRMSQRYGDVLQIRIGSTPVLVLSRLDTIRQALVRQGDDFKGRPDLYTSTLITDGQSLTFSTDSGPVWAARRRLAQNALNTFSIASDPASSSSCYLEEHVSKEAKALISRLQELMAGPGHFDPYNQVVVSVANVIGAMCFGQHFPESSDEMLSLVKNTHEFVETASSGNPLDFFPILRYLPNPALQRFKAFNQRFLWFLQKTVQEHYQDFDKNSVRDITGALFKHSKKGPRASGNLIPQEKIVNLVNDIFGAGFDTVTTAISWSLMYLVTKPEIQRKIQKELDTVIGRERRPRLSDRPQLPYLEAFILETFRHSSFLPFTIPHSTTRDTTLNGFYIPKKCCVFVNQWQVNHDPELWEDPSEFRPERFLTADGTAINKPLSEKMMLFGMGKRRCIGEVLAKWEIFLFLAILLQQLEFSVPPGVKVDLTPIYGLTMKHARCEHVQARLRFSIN

[18] = Luminescence Cell-Based Dose Confirmation HTS to Identify Inhibitors of Platelet Dense Granule Release. [Related pubchem assays: 1663 (Primary HTS), 1678 (Summary of Project)]; assay type: functional
[19] = A cytotoxicity screen of small molecule inhibitors of the PhoP region in Salmonella typhi identified in the primary screen. [Related pubchem assays: 1850, 1864, 1985 ]; assay type: functional
[20] = biological target: DNA dC->dU-editing enzyme APOBEC-3G (Homo sapiens, UniProt Q9HC16); assay: Dose Response confirmation of small molecule APOBEC3G DNA Deaminase Inhibitors via a fluorescence-based single-stranded DNA deaminase assay. [Related pubchem assays (depositor defined):AID493012, AID493028]; assay type: functional
[21] = biological target: T5, Mannose-6-phosphate isomerase (Homo sapiens, UniProt P34949); assay: MPI inhibition at elevated mannose 6-phosphate – biochemical, fluorescence intensity, high mannose 6-phosphate, primary screen (AID 1220)
T5 sequence (P34949 whole entry): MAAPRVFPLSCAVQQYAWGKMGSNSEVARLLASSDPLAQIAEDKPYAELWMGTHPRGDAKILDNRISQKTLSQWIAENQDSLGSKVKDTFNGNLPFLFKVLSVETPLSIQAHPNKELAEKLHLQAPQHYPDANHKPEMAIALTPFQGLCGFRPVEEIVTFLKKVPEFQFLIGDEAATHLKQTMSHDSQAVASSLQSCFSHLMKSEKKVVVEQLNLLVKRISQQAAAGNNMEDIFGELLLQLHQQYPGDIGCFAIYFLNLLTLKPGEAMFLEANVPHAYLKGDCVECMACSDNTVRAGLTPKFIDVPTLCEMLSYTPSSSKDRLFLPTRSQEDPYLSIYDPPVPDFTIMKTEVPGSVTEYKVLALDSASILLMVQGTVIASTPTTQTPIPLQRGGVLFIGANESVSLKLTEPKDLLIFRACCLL

Chain of Cytochrome P450 2D6 (P10635 whole entry): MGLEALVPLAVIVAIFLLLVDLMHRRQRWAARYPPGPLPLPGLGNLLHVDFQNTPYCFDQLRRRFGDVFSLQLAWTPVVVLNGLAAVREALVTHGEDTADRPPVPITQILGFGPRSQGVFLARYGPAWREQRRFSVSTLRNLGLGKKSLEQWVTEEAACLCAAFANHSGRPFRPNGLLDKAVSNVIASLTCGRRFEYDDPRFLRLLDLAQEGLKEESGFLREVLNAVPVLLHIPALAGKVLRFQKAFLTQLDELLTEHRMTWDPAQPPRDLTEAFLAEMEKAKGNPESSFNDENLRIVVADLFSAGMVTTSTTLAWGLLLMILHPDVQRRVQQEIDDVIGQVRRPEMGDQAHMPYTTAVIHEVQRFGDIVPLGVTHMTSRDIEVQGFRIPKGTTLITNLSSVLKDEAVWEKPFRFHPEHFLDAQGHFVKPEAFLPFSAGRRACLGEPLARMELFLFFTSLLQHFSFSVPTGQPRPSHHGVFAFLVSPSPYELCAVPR
Chain of Cytochrome P450 2C19 (P33261 whole entry): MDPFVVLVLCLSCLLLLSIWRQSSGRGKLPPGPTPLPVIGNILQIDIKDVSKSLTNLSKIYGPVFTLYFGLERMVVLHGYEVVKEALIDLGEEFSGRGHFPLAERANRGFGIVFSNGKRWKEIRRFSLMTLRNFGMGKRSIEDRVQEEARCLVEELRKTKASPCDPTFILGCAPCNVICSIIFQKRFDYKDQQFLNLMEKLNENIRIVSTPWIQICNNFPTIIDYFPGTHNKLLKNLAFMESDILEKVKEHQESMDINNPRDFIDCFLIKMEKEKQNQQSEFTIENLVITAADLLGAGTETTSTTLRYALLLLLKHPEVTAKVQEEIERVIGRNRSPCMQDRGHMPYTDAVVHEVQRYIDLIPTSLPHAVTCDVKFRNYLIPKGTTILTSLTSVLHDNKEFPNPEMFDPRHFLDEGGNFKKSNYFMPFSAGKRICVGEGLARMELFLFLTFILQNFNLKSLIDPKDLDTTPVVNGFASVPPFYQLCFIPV
Chain of DNA dC->dU-editing enzyme APOBEC-3G (Q9HC16 whole entry): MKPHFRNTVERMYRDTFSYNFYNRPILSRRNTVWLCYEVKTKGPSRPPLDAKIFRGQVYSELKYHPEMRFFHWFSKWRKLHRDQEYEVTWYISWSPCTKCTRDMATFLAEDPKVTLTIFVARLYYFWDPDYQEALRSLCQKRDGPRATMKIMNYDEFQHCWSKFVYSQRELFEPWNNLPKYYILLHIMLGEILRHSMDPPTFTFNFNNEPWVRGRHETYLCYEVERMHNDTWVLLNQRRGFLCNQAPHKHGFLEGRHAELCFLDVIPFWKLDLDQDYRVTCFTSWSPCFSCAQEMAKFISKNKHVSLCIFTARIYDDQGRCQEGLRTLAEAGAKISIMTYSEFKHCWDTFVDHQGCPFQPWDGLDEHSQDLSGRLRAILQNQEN
Chain of ATP-dependent molecular chaperone HSP82 (C4YTQ8 whole entry): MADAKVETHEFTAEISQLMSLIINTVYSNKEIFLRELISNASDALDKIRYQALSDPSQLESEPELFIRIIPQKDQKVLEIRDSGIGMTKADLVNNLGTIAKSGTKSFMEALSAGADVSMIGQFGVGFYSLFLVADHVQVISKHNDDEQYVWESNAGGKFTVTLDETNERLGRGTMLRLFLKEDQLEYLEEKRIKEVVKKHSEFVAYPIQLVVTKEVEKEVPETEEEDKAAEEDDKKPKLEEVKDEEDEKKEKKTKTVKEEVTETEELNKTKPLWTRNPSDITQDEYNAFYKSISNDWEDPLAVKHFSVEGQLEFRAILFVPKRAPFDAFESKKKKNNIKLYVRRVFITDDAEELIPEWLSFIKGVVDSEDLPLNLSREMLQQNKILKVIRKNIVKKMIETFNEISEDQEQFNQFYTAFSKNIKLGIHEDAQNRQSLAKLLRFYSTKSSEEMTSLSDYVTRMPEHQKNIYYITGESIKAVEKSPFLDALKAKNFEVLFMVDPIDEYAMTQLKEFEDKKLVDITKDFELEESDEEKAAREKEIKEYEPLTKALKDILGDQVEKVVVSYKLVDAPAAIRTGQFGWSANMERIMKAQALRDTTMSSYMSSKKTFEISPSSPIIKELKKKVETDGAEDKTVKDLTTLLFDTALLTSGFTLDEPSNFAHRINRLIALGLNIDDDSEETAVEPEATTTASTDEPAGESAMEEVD
Chain of Ephrin type-A receptor 4 (Q03137 whole entry): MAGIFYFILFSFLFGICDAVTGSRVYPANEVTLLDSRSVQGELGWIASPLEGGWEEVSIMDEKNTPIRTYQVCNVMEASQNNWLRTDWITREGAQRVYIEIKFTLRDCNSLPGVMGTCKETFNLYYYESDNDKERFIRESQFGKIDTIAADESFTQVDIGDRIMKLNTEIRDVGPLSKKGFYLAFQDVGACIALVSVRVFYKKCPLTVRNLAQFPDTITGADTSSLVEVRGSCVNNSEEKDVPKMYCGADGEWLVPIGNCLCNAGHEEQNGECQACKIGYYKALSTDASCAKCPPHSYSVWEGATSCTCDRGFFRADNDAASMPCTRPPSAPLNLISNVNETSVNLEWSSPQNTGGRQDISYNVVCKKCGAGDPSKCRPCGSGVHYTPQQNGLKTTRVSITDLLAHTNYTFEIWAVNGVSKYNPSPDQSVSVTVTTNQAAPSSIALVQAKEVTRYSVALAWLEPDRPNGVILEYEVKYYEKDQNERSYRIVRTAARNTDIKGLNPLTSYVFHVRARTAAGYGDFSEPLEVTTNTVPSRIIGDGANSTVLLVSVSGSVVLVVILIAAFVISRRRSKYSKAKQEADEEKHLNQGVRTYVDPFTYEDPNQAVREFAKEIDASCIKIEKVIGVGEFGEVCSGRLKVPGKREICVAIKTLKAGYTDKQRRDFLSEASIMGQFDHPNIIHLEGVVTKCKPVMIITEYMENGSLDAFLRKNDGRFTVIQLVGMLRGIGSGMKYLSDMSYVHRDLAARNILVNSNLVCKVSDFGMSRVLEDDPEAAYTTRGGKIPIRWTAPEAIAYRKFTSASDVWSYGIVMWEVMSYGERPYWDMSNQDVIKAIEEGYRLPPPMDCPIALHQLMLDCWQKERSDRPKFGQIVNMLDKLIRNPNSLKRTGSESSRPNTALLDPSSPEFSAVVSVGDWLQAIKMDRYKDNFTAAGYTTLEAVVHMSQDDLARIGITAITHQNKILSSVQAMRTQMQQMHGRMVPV
Chain of Luciferin 4-monooxygenase (P08659 whole entry): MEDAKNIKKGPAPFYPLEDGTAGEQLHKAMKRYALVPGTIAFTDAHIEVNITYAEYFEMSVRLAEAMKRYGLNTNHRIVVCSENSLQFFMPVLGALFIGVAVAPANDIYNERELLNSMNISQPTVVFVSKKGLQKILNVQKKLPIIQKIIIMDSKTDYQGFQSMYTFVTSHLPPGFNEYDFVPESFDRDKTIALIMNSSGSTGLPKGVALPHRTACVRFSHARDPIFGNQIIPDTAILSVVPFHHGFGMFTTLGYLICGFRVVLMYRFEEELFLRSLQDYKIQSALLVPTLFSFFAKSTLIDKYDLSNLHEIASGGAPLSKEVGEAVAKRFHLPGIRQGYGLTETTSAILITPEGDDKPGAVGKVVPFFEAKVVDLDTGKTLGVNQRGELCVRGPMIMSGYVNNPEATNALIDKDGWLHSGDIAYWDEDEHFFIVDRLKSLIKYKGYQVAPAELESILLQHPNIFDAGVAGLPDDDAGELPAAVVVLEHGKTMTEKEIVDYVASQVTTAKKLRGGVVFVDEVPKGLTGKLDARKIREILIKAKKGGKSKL
Chain of Nonstructural protein 1 (Q194T2 whole entry): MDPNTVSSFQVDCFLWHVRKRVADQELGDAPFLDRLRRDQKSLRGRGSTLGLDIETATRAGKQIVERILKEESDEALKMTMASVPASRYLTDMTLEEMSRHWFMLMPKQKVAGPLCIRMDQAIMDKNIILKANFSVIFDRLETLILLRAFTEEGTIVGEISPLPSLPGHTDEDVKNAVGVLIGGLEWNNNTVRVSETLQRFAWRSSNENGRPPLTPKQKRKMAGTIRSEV

SMILES: Cc1cccc(OCCn2c(S(=O)(=O)O)nc3ccccc32)c1
- AC50 (Cytochrome P450 2D6): inconclusive

SMILES: O=S(=O)(c1cnc(Cl)c(Cl)c1)N1CCCc2ccccc21
- IC50 [1]: > 80 µM (inactive)

SMILES: CC(=O)Nc1ccccc1C(=O)C(=O)O
- AC50 (Cytochrome P450 2C19; read-out: AC50): 10 µM (inconclusive)
- AC50 (Cytochrome P450 2D6): inconclusive

SMILES: O=Cc1ccc(O)c2ncccc12
- AC50 [2]: 0.552 µM (active)
- EC50 [3]: 11.2 µM (active)
- EC50 [4]: 16.6 µM (active)
- EC50 (BJ [5]): 21.1 µM (inconclusive)
- EC50 [6]: 16.1 µM (active)
- EC50 [7]: 3.93 µM (active)
- EC50 (BJ [8]): 33.7 µM (active)
- EC50 [9]: 0.333 µM (active)
- EC50 (BJ [10]): 4.43 µM (active)
- IC50 (Nonstructural protein 1): 1.71 µM (active)
- EC50 (BJ [11]): 0.284 µM (active)

SMILES: COC(=O)[C@@]12OC[C@]34[C@H]([C@@H](O)[C@@H]1O)[C@@]1(C)C(=O)C(O[C@@H]5OC(CO)[C@@H](O)[C@@H](O)[C@@H]5O)=C[C@@H](C)[C@@H]1C[C@H]3OC(=O)[C@H](OC(=O)/C=C(\C)C(C)(C)OC(C)=O)[C@@H]24 (some centres not stated)
- IC50 [1]: > 80 µM (inactive)

SMILES: C=CCn1c(C)cc(C2=NN=C(NC(C)(C)C)SC2)c1C
- AC50 [12]: 4.09 µM (active)

SMILES: O=[N+]([O-])c1ccc(N(c2ccccc2)c2ccccc2)cc1
- EC50 [13]: 24.3 µM (active)
- IC50 (CHO): > 49.7 µM (inactive)
- IC50 (Ephrin type-A receptor 4): 10.8 µM (active)

SMILES: CCNc1nc(C)c2cc(Br)c(=O)n(CC)c2n1
- IC50 [1]: > 80 µM (inactive)
- EC50 [14]: 7.96 µM (active)
- EC50 [15]: 15.9 µM (active)
- EC50 [16]: 11.5 µM (active)

SMILES: COc1ccc(C(N)=O)cc1NC(=O)c1cccc(F)c1
- EC50 [17]: > 112 µM (not active)
- AC50 (Cytochrome P450 2D6): inconclusive
- AC50 (Cytochrome P450 1A2): 5.01 µM (inconclusive)
- EC50 [18]: > 112 µM (not active)

SMILES: Cc1cc(C)nc(SCC(=O)NCc2ccco2)n1
- EC50 [19]: > 50 µM (active)

SMILES: CCOC(=O)C(/C=N/c1cc(C)ccc1C)=C(\O)OCC
- IC50 [1]: > 80 µM (inactive)

SMILES: CCCOc1ccc(C2=CSC3=NCCN23)cc1Cl
- EC50 [19]: > 50 µM (active)

SMILES: CNS(=O)(=O)c1cccc(C(=O)OCc2cc(=O)oc3c(C)c(O)ccc23)c1
- EC50 [19]: > 50 µM (active)

SMILES: NC1(C(=O)O)CCCCC1
- AC50 (Cytochrome P450 2C19): inconclusive
- AC50 (Cytochrome P450 2D6): inconclusive

SMILES: CCOC(=O)c1sc(N)c(C(=O)Nc2ccccc2OC)c1C
- IC50 [20]: 68.9 µM (active)

SMILES: O=C(NC1=NC(=O)C(F)(C(F)(F)F)S1)NC1CCCCC1 (configuration not stated)
- IC50 [20]: 32.7 µM (active)
- IC50 [21]: > 50 µM (not active)
